One test relates to KG-1 AML cells. Put plainly: MTT cell viability assay, KG1. The settings on record: KG-1, expresses SHIP1, 36 hours. Type of test: cell-based, human. The method, then:
(A) SHIP1 expression in KG1 and MG63 cells was determined by Western blotting (top). Membranes were reprobed with antibodies against b-actin to confirm equal loading (lower panel). One representative blot of 2 individual experiments is shown. (B) KG1 and MG63 cells were plated in duplicate in 96 well plates, and treated for 36 hours with increasing concentrations of the 3α-aminocholestane. Cell viability was assessed by MTT assay. Results represent the mean of three individual experiments. (C) KG1 cells were treated with increasing concentrations of 3α-aminocholestane for 36 hours and hallmarks of apoptosis were identified in cell lysates by Western Blot analysis. […] (D) KG1 cells were treated with increasing concentrations of 3α-aminocholestane, and the percentage of AnnexinV and PI positive cells was determined by FACS analysis. […]
Cell viability assay: Cells were treated in duplicate for 36 hours with increasing concentrations of 3α-aminocholestane or vehicle. […] Formed crystals were dissolved in dimethyl sulfoxide and optical density (OD) was measured at 570 nm. The OD of compound treated cells was divided by the OD of their vehicle control, and the viability was expressed as a percentage of untreated cells. Results are expressed as mean±SEM of three individual experiments.

The test system of test [1] is human multiple myeloma cell lines U266, RPMI8226 and OPM2. Put plainly: MTT dye assay of multiple myeloma cell lines. Format: cell-based. The settings on record: increasing concentrations. An excerpt:
(A) SHIP1 expression in human multiple myeloma (MM) cell lines as presented in the western blot analysis. SHIP is expressed in the human multiple myeloma cell lines U266, RPMI8226 and OPM2. The expression in the MM cell lines is shown relative to that observed in MG63 and HS-5 cell lines. MG63 is an osteosarcoma cell line, and HS-5 is a human bone marrow stroma cell line. […] Actin is provided as a control. (B) Results of MTT dye assays of MM cell lines. […] RUO is “relative units optical”. (C) Apoptosis in OPM and RPMI cell lines at increasing concentrations of 3α-aminocholestane.

Test [2] relates to priming of allogeneic T cell responses by C57Bl6/J splenocytes. Put plainly: One-way mixed leukocyte reaction (MLR), stimulator splenocytes treated in vitro. Type of test: cell-based, mouse. The settings on record: splenocytes cultured with compound 72 hr, added at 0, 24 and 48 hr. As to the method: Mean proliferation of 100K BALB/C responders as measured by ^3H-Thymidine uptake after exposure to 200K irradiated BL6 stimulators that were treated with the indicated compound, 1×DMSO or 1× EtOH prior to initiation of the mixed leukocyte reaction (MLR). 1×DMSO serves as the allogeneic MLR positive control for all compounds with the exception of HLM85321 for which 1× EtOH is the positive control. [*p<0.05, **p<0.01].
Spleen cells and lymphe node LN cells are normally robust stimulators of allogeneic T cell responses in the one-way mixed leukocyte reaction (MLR) assay, but they are very poor stimulators when obtained from mice with germline or induced SHIP-deficiency. […]
Mixed leukocyte reactions (MLR): Following RBC lysis, irradiated (2000 Rads) BL6 splenocytes (stimulators) at 8×10^5 cells/well were combined with BALB/c splenocytes (responders) at 4×10^5 cells/well in a one-way MLR assay. […] Incorporated [3H]thymidine was quantitated using a Packard TopCount NXT. Specific [3H]thymidine incorporation into genomic DNA was calculated as the average of the mean (±SEM) of sextuplicate wells. […]

The values below come from patent US9006221B2, “Method of modulating ship activity” (H. Lee Moffitt Cancer Center and Reserach Institute, Inc., priority 2008, dated 2015).

Entries after “also recorded” stand apart in the source; their conditions may differ.

For the compound `CC(C)CCC[C@@H](C)[C@H]1CC[C@H]2[C@@H]3CC[C@H]4C[C@H](N)CC[C@]4(C)[C@H]3CC[C@]12C` [NSC23922, (3R,5S,8R,9S,10S,13R,14S,17R)-10,13-dimethyl-17-[(2R)-6-methylheptan-2-yl]-2,3,4,5,6,7,8,9,11,12,14,15,16,17-tetradecahydro-1H-cyclopenta[a]phenanthren-3-amine], in the test with KG-1 AML cells, the “growth and survival of cells (MTT viability)” value was “decreases the growth and survival”. Further, the “viability of multiple myeloma cell lines” value in test [1] is “decrease in viability”. On to `OC(c1cc(-c2ccccc2)nc2c1ccc1ccccc12)C1CCCCN1` (stereo not drawn) [NSC13480, (2-phenylbenzo[h]quinolin-4-yl)-piperidin-2-ylmethanol], for which the “ability of splenocytes to prime allogeneic T cell responses by BALB/C responders (3H-thymidine uptake)” value in test [2] is on record as “significantly inhibited; also recorded: complete inability to prime allogeneic T cell responses”.
